Reference: US11304929B2, “Tosylacetate based compounds and derivatives thereof as PHGDH inhibitors” (priority 2017, dated 2022)
pIC50: −log10 of the molar value. Like-named read-outs stand apart in the source and are kept apart here.

Target: PHGDH (Homo sapiens (Human), UniProt O43175)
Experiment: 3-Phosphoglycerate Dehydrogenase (PHGDH) Fluorescence Intensity Assay, run at two NAD/3-PG ratios: PHGDH_HIGH_NAD/3-PG (250 μM NAD/500 μM 3-PG) and PHGDH_500_NAD/3-PG (500 μM NAD/500 μM 3-PG)
Format: biochemical
[1] = 250 μM NAD/500 μM 3-PG, read-out: IC50 (PHGDH_HIGH_NAD/3-PG)
[2] = 500 μM NAD/500 μM 3-PG, read-out: IC50 (PHGDH_500_NAD/3-PG)

Sequence of PHGDH (O43175 2-533 limits assumed): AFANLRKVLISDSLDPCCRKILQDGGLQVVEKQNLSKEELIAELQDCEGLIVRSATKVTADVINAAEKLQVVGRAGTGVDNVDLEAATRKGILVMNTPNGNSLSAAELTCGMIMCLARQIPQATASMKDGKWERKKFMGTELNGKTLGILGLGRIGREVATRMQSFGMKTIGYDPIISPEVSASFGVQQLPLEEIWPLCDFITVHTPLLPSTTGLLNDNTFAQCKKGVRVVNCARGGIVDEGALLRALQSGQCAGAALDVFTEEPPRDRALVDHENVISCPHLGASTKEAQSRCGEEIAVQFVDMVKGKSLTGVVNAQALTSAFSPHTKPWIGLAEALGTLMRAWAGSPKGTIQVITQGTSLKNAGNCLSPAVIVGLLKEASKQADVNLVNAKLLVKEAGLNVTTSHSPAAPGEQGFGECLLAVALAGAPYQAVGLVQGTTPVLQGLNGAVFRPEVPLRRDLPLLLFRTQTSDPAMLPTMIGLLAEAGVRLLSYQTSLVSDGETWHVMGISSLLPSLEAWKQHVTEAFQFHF

C[C@@H](NC(=O)c1cc(-c2ccc(F)cc2)nn1C)c1ccc(S(=O)(=O)CC(=O)OCC2COC2)cc1 [Example 10-007, oxetan-3-ylmethyl 2-{4-[(1R)-1-{[3-(4-fluorophenyl)-1-methyl-1H-pyrazol-5-yl]formamido}ethyl]benzenesulfonyl}acetate]
pIC50 [1]: 6.15

COC(=O)C[S+]([O-])c1ccc([C@@H](C)NC(=O)c2cc3c(Cl)c(Cl)c(C)cc3n2C)cc1 (stereo partly drawn) [Example 11-001, methyl 2-{4-[(1R)-1-[(4,5-dichloro-1,6-dimethyl-1H-indol-2-yl)formamido]ethyl]benzenesulfinyl}acetate]
pIC50 [1]: 6.53 | pIC50 [2]: 6.36

COC(=O)C[S@@+]([O-])c1ccc([C@@H](CO)NC(=O)c2cc3c(Cl)c(Cl)c(C)cc3n2C)cc1 [Example 11-002, methyl 2-[(R)-4-[(1S)-1-[(4,5-dichloro-1,6-dimethyl-1H-indol-2-yl)formamido]-2-hydroxyethyl]benzenesulfinyl]acetate]
pIC50 [1]: 6.72 | pIC50 [2]: 6.54

COC(=O)C[S@+]([O-])c1ccc([C@@H](CO)NC(=O)c2cc3c(Cl)c(Cl)c(C)cc3n2C)cc1 [Example 11-003, methyl 2-[(S)-4-[(1S)-1-[(4,5-dichloro-1,6-dimethyl-1H-indol-2-yl)formamido]-2-hydroxyethyl]benzenesulfinyl]acetate]
pIC50 [1]: 7.05 | pIC50 [2]: 6.86

COC(=O)C[S+]([O-])c1ccc([C@@H](CO)NC(=O)c2cc3c(Cl)c(Cl)c(C)cc3n2C)cc1 (stereo partly drawn) [Example 11-004, methyl 2-{4-[(1S)-1-[(4,5-dichloro-1,6-dimethyl-1H-indol-2-yl)formamido]-2-hydroxyethyl]benzenesulfinyl}acetate]
pIC50 [1]: 7.01 | pIC50 [2]: 6.71

COC(=O)C[S+]([O-])c1ccc([C@@H](CO)NC(=O)c2cc3c(Cl)cc(C)cc3n2C)cc1 (stereo partly drawn) [Example 11-005, methyl 2-{4-[(1S)-1-[(4-chloro-1,6-dimethyl-1H-indol-2-yl)formamido]-2-hydroxyethyl]benzenesulfinyl}acetate]
pIC50 [1]: 6.66

COC(=O)C[S@@+]([O-])c1ccc([C@@H](C)NC(=O)c2cc3c(Cl)cc(C)cc3n2C)cc1 [Example 11-006, methyl 2-[(R)-4-[(1R)-1-[(4-chloro-1,6-dimethyl-1H-indol-2-yl)formamido]ethyl]benzenesulfinyl]acetate]
pIC50 [1]: 5.95

COC(=O)C[S@+]([O-])c1ccc([C@@H](C)NC(=O)c2cc3c(Cl)cc(C)cc3n2C)cc1 [Example 11-007, methyl 2-[(S)-4-[(1R)-1-[(4-chloro-1,6-dimethyl-1H-indol-2-yl)formamido]ethyl]benzenesulfinyl]acetate]
pIC50 [1]: 6.63

COC(=O)C[S@+]([O-])c1ccc([C@@H](CO)NC(=O)c2cc3c(Cl)cc(C)cc3n2C)cc1 [Example 11-008, methyl 2-[(S)-4-[(1S)-1-[(4-chloro-1,6-dimethyl-1H-indol-2-yl)formamido]-2-hydroxyethyl]benzenesulfinyl]acetate]
pIC50 [1]: 6.92

COC(=O)C[S+]([O-])c1ccc([C@@H](C)NC(=O)c2cc3c(Cl)cc(C)cc3n2C)cc1 (stereo partly drawn) [Example 11-009, methyl 2-{4-[(1R)-1-[(4-chloro-1,6-dimethyl-1H-indol-2-yl)formamido]ethyl]benzenesulfinyl}acetate]
pIC50 [1]: 6.21

COC(=O)C[S@@+]([O-])c1ccc([C@@H](CO)NC(=O)c2cc3c(Cl)cc(C)cc3n2C)cc1 [Example 11-010, methyl 2-[(R)-4-[(1S)-1-[(4-chloro-1,6-dimethyl-1H-indol-2-yl)formamido]-2-hydroxyethyl]benzenesulfinyl]acetate]
pIC50 [1]: 6.35

Cc1cc2c(cc(C(=O)N[C@H](CO)c3ccc([S@@+]([O-])CC(=O)O)cc3)n2C)c(Cl)c1Cl [Example 12-001, 2-[(S)-4-[(1S)-1-[(4,5-dichloro-1,6-dimethyl-1H-indol-2-yl)formamido]-2-hydroxyethyl]benzenesulfinyl]acetic acid]
pIC50 [1]: 8.15 | pIC50 [2]: 8.05

Cc1cc2c(cc(C(=O)N[C@H](CO)c3ccc([S@+]([O-])CC(=O)O)cc3)n2C)c(Cl)c1Cl [Example 12-002, 2-[(R)-4-[(1S)-1-[(4,5-dichloro-1,6-dimethyl-1H-indol-2-yl)formamido]-2-hydroxyethyl]benzenesulfinyl]acetic acid]
pIC50 [1]: 8.52 | pIC50 [2]: 8.40

Cc1cc2c(cc(C(=O)N[C@H](CO)c3ccc([S+]([O-])CC(=O)O)cc3)n2C)c(Cl)c1Cl (stereo partly drawn) [Example 12-003, 2-{4-[(1S)-1-[(4,5-dichloro-1,6-dimethyl-1H-indol-2-yl)formamido]-2-hydroxyethyl]benzenesulfinyl}acetic acid]
pIC50 [1]: 8.52 | pIC50 [2]: 8.30

Cc1cc(Cl)c2cc(C(=O)N[C@H](C)c3ccc([S+]([O-])CC(=O)O)cc3)n(C)c2c1 (stereo partly drawn) [Example 12-004, 2-{4-[(1R)-1-[(4-chloro-1,6-dimethyl-1H-indol-2-yl)formamido]ethyl]benzenesulfinyl}acetic acid]
pIC50 [1]: 7.96 | pIC50 [2]: 7.74

Cc1cc(Cl)c2cc(C(=O)N[C@H](C)c3ccc([S@+]([O-])CC(=O)O)cc3)n(C)c2c1 [Example 12-005, 2-[(R)-4-[(1R)-1-[(4-chloro-1,6-dimethyl-1H-indol-2-yl)formamido]ethyl]benzenesulfinyl]acetic acid]
pIC50 [1]: 7.77 | pIC50 [2]: 7.55

Cc1cc(Cl)c2cc(C(=O)N[C@H](C)c3ccc([S@@+]([O-])CC(=O)O)cc3)n(C)c2c1 [Example 12-006, 2-[(S)-4-[(1R)-1-[(4-chloro-1,6-dimethyl-1H-indol-2-yl)formamido]ethyl]benzenesulfinyl]acetic acid]
pIC50 [1]: 7.21 | pIC50 [2]: 7.02

Cc1cc(Cl)c2cc(C(=O)N[C@H](CO)c3ccc([S+]([O-])CC(=O)O)cc3)n(C)c2c1 (stereo partly drawn) [Example 12-007, 2-{4-[(1S)-1-[(4-chloro-1,6-dimethyl-1H-indol-2-yl)formamido]-2-hydroxyethyl]benzenesulfinyl}acetic acid]
pIC50 [1]: 8.10 | pIC50 [2]: 7.96

Cc1cc2c(cc(C(=O)N[C@H](C)c3ccc([S+]([O-])CC(=O)O)cc3)n2C)c(Cl)c1Cl (stereo partly drawn) [Example 12-008, 2-{4-[(1R)-1-[(4,5-dichloro-1,6-dimethyl-1H-indol-2-yl)formamido]ethyl]benzenesulfinyl}acetic acid]
pIC50 [2]: 8.10

Cc1cc2c(cc(C(=O)N[C@H](CO)c3ccc([S@+]([O-])CC(=O)O)cc3)n2C)c(F)c1F [Example 12-009, 2-[(R)-4-[(1S)-1-[(4,5-difluoro-1,6-dimethyl-1H-indol-2-yl)formamido]-2-hydroxyethyl]benzenesulfinyl]acetic acid]
pIC50 [2]: 7.49

Cc1cc2c(cc(C(=O)N[C@H](CO)c3ccc([S@@+]([O-])CC(=O)O)cc3)n2C)c(F)c1F [Example 12-010, 2-[(S)-4-[(1S)-1-[(4,5-difluoro-1,6-dimethyl-1H-indol-2-yl)formamido]-2-hydroxyethyl]benzenesulfinyl]acetic acid]
pIC50 [2]: 8.00

Cc1cc2c(cc(C(=O)N[C@H](CO)c3ccc([S@+]([O-])CC(=O)OC(C)C)cc3)n2C)c(Cl)c1Cl [Example 13-001, propan-2-yl 2-[(R)-4-[(1S)-1-[(4,5-dichloro-1,6-dimethyl-1H-indol-2-yl)formamido]-2-hydroxyethyl]benzenesulfinyl]acetate]
pIC50 [1]: 6.69 | pIC50 [2]: 6.52
